Data reported in paper PMC3126109 (Biochemistry, 2010).
Where “and” joins values, the source holds several entries; their conditions need not be identical. Equal entries are not always repeated.

T1: Pyrococcus horikoshii biotin protein ligase (PhBPL) (Pyrococcus horikoshii, UniProt O57883)
T1 sequence (O57883 1-235): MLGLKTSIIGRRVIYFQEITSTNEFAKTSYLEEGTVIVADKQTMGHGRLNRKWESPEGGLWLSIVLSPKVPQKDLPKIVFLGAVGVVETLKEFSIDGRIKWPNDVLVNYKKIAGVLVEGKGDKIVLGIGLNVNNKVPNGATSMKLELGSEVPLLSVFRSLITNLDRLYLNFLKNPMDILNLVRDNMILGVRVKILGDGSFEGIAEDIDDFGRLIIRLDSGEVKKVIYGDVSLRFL

B1: Pyrococcus horikoshii Biotin Protein Ligase (enzyme)
chain: T1 sequence (O57883 1-235)

Key:
[1] = biological target: T1, Pyrococcus horikoshii biotin protein ligase (PhBPL); assay: Steady state fluorescence titration of PhBPL with ligand; format: binding; conditions: for blue shift of emission maximum / quenching of intrinsic protein fluorescence: saturating ligand
[2] = tested on: E. coli BPL; conditions: bio-5′-AMP synthesis; cited from earlier work
[3] = biological target: T1, Pyrococcus horikoshii biotin protein ligase (PhBPL); assay: Isothermal titration calorimetry of PhBPL with biotin; format: binding
[4] = biological target: the molecule itself; assay: AUC
[5] = KD, 20°C, Standard Buffer pH 7.5
[6] = KD, 30°C, Standard Buffer pH 7.5
[7] = KD, 40°C, Standard Buffer pH 7.5
[8] = KD, 50°C, Standard Buffer pH 7.5

Molecule | Kd [1, 5] [µM] | Kd [1, 6] [µM] | Kd [1, 7] [µM] | Kd [1, 8] [µM] | blue shift of emission maximum [1] | quenching of intrinsic protein fluorescence [1] [%] | further results
Nc1ncnc2c1ncn2C1OC(COP(=O)(O)CP(=O)(O)OP(=O)(O)O)C(O)C1O (stereo not drawn) [AMPCPP, α,β-methyleneadenosine 5′-triphosphate] | – | – | – | – | – | – | Kd ([1]; 20°C, Standard Buffer pH 7.5): 150 µM; Kd ([1]; 20°C, titrated into PhBPL saturated with biotin): 140 µM; ΔG° ([1]; 20°C, titrated into PhBPL saturated with biotin, ΔG°= RTlnKD): -5.1 ± 0.1 kcal/mol
Nc1ncnc2c1ncn2[C@@H]1O[C@H](COP(=O)(O)OP(=O)(O)OP(=O)(O)O)[C@@H](O)[C@H]1O [ATP, adenosine 5′-triphosphate] | 240 | 290 | 300 | 430 | approximately 5 nm | 60 | Kd ([1]; KD, temperature range of 20-50°C): 200 to 400 µM; binding enthalpy (van’t Hoff analysis) ([1]; titrations from 20 to 50°C): -3.5 ± 1.5 kcal/mol; Km [2]: ~3000 µM
O=C(O)CCCC[C@@H]1SC[C@@H]2NC(=O)N[C@@H]21 [Biotin, d-biotin] | 0.2 | 0.2 | 0.51 | 0.39 | approximately 5 nm | 30 | Kd ([1]; KD, 10°C, Standard Buffer pH 7.5): 0.12 µM; increase of equilibrium dissociation constant with temperature ([1]; from 10°C to 50°C): approximately four fold; enthalpy of binding (van’t Hoff analysis) ([1]; titrations from 10 to 50°C): -4.4 ± 0.2 kcal/mol and -4.4 kcal/mol; equilibrium association constant by ITC ([3]; 20°C, direct titration): identical to that measured by fluorescence titrations; heat capacity change ([3]; temperature-dependence of binding by ITC): 5±14 cal/mole·K
B1 | – | – | – | – | – | – | stoichiometry N [4]: 2
